According to ChEMBL document CHEMBL1201862, “PubChem BioAssay data set” (2004):
Active and inactive are the calls of the source.

Assays:
[1] = molecular target: Induced myeloid leukemia cell differentiation protein Mcl-1 (Homo sapiens, UniProt Q07820); type: functional
[2] = molecular target: Intestinal-type alkaline phosphatase (Mus musculus, UniProt P24822); test: PubChem AID 488874; type: functional
[3] = molecular target: T1, Intestinal-type alkaline phosphatase (Homo sapiens, UniProt P09923); test: human intestinal alkaline phosphatase activators, dose response, biochemical, luminescence, uHTS hits (AID 463120); type: functional
[4] = molecular target: Nonstructural protein 1 (Influenza A virus, UniProt Q194T2); type: functional, Influenza A virus (A/California/07/2009(H1N1))
[5] = molecular target: T1, Intestinal-type alkaline phosphatase; test: human IAP activators, dose response, biochemical, luminescent, uHTS hits, set 2 (AID 488817); type: functional;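 also: potency of activators that raise enzyme activity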
[6] = molecular target: T2, Alkaline phosphatase, tissue-nonspecific isozyme (Homo sapiens, UniProt P05186); test: inhibition of tissue-nonspecific alkaline phosphatase – biochemical, dose response (AID 488882); type: functional
T2 sequence (P05186 whole entry): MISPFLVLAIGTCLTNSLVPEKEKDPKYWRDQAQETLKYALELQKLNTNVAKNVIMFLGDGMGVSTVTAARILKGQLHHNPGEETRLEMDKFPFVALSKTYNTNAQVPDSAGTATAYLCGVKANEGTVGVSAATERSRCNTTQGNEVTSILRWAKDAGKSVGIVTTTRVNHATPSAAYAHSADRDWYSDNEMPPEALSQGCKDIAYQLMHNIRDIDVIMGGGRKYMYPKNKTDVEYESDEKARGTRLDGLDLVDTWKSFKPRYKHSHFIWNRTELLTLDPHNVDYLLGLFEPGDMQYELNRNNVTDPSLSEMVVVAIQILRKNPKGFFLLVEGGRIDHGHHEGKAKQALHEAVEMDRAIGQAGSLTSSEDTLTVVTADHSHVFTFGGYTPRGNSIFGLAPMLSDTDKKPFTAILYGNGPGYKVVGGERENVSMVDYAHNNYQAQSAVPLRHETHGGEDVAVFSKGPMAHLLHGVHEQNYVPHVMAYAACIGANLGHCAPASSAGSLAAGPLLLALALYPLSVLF

[7] = HeLa cell cytotoxicity, dose response, cytotoxicity control for MgcRacGAP inhibitor project (AID 624300); type: functional
[8] = molecular target: T3, Rac GTPase-activating protein 1 (Homo sapiens, UniProt Q9H0H5); test: MgcRacGAP GTPase-activating activity inhibitors, confirmation, biochemical, ADP Hunter fluorescence, primary and confirmatory (AID 624330); type: functional
T3 sequence (Q9H0H5 whole entry): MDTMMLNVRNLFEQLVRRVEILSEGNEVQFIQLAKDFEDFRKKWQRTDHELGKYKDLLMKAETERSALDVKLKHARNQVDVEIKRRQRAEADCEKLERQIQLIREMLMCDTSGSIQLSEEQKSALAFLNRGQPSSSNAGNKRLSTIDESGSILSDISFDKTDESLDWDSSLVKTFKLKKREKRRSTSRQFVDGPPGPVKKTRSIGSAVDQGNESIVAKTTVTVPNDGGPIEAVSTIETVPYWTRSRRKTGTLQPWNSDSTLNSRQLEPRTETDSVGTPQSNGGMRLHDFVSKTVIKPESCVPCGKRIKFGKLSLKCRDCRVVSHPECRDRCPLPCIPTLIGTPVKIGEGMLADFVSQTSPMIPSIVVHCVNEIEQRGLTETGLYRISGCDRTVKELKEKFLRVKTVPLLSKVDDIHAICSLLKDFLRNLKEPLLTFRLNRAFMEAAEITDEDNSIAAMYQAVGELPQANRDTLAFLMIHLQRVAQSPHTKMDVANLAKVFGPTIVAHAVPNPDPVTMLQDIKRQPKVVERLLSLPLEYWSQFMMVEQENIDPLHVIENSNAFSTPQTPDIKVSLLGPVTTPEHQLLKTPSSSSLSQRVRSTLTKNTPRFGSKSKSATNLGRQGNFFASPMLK

[9] = tested on: HEK293; test: NOD1 signaling inhibitors, primary screen, cell-based, luminescence, uHTS (AID 1578); type: functional; conditions: Homo sapiens
[10] = tested on: HEK293; test: cells; type: functional, cell-based; conditions: Homo sapiens
[11] = tested on: HEK293; test: cells; type: functional, cell-based; conditions: Homo sapiens; remark: listed apart in the source
[12] = molecular target: Nucleotide-binding oligomerization domain-containing protein 2 (Homo sapiens, UniProt Q9HC29); test: NOD2 signaling inhibitors, cell-based, luminescence, uHTS, HEK293 (AID 1566); type: functional
[13] = tested on: HEK293; test: NOD2 signaling inhibitors in MDP-stimulated cells, cell-based, uHTS, luminescence (AID 2001); type: functional; conditions: Homo sapiens
[14] = tested on: HEK293; test: cells; type: functional, cell-based; conditions: Homo sapiens; remark: listed apart in the source
[15] = molecular target: Tumor necrosis factor (Homo sapiens, UniProt P01375); test: TNFa-triggered NF-kB activation inhibitors, SAR follow-up, cell-based, revised (AID 2337); type: functional
[16] = molecular target: T4, Nucleotide-binding oligomerization domain-containing protein 1 (Homo sapiens, UniProt Q9Y239); test: NOD1 signaling inhibitors, SAR follow-up, revised (AID 2333); type: functional
T4 sequence (Q9Y239 whole entry): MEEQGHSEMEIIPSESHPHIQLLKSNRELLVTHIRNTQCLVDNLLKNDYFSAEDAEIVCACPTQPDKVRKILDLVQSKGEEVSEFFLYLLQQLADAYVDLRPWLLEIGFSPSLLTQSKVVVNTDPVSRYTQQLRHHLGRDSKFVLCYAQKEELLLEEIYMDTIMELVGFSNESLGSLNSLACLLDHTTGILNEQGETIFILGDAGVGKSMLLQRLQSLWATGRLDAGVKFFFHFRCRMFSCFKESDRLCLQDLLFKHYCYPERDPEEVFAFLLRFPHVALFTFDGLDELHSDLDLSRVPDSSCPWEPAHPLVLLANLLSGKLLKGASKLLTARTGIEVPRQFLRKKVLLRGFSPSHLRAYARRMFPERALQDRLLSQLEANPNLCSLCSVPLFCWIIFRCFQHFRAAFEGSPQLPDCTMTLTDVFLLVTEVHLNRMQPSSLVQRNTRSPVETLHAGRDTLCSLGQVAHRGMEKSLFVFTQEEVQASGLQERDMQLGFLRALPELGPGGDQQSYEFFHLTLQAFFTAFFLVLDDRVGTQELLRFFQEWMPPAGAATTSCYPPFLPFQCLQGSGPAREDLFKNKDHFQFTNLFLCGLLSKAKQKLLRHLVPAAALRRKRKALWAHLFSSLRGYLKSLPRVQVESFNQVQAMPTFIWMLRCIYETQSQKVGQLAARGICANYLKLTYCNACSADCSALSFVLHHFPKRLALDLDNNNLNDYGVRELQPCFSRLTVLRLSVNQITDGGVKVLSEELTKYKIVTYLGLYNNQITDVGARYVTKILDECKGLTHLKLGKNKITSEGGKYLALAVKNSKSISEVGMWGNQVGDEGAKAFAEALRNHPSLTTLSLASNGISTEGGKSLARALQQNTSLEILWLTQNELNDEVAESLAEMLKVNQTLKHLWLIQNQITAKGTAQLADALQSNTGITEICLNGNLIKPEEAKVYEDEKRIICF

[17] = molecular target: T5, X-box-binding protein 1 (Homo sapiens, UniProt P17861); type: functional, Cricetulus griseus;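 also: confirmatory dose-response counter-screen serving a CHOP assay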
T5 sequence (P17861 whole entry): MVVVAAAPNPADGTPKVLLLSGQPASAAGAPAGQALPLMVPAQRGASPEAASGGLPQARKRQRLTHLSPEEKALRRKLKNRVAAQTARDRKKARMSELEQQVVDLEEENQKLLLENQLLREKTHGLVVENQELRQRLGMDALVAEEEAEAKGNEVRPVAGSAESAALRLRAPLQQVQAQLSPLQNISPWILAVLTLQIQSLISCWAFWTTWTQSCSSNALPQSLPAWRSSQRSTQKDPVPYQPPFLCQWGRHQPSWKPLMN

[18] = tested on: HEK293; test: cells; conditions: Homo sapiens
[19] = tested on: Streptococcus sp. 'group A'; test: growth inhibition of control SK(-) GAS strain, dose response, counter-screen for streptokinase expression inhibitor project, luminescence, kanamycin, BacTiterGlo, confirmation (AID 1900); type: functional, organism-based
[20] = molecular target: T6, Heat shock factor protein 1 (Mus musculus, UniProt P38532); test: inhibition of MG132-induced HSE-luciferase signal, confirmation, cell-based, NIH3T3, luminescence, dose retest (AID 2382); type: functional;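 also: NIH3T3 fibroblasts with HSF1-driven luciferase reporter stressed by proteasome inhibitor MG132; luminescence from HSF1-driven luciferase expression after 8 hours of MG132 stress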
T6 sequence (P38532 whole entry): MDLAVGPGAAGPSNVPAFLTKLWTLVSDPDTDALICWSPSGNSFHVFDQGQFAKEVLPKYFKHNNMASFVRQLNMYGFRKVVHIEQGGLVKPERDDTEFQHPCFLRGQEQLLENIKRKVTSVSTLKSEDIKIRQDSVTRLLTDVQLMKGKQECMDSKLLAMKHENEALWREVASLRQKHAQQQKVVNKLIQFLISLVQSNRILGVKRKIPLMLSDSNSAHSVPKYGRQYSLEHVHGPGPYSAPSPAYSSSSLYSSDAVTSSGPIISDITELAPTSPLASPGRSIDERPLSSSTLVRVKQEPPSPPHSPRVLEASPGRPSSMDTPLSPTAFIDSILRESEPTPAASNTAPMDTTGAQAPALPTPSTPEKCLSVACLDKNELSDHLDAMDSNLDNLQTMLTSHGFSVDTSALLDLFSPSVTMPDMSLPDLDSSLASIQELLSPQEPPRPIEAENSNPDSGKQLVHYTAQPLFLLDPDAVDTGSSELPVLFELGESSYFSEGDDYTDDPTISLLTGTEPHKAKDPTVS

[21] = tested on: Streptococcus; test: Group A Streptococcus viability loss, dose response, counter-screen for streptokinase expression inhibitor project, luminescence, BacTiterGlo (AID 1915); type: functional, organism-based;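 also: potency for reduction of bacterial viability or growth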
[22] = molecular target: T2, Alkaline phosphatase, tissue-nonspecific isozyme; test: TNAP enzyme activators, dose response, selectivity assay for human IAP activator project, biochemical, TNAP isozyme, human IAP uHTS hits (AID 488886); type: functional;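 also: potency of compounds raising TNAP activity as a selectivity check on IAP activators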
[23] = molecular target: Albumin (Bos taurus, UniProt P02769); test: Counterscreen for inhibitors of T-cell receptor (TCR)-CD3 interaction: Fluorescence-based biochemical high throughput dose response assay to identify inhibitors of T-cell receptor (TCR)-CD3 interaction using a TAMRA-labeled BSA probe.; type: functional
[24] = HEp-2 cell cytotoxicity, dose response, cytotoxicity control for RSV inhibitor project, HTS (AID 2410); type: functional; conditions: human respiratory syncytial virus
[25] = Luminescence Cell-Based Dose Confirmation HTS to Identify Activators of 5'UTR Stem-Loop Driven Alpha-Synuclein mRNA Translation in H4 Neuroglioblastoma Cells. [Related pubchem assays: 1829 (Project Summary), 1814 (Primary HTS)]; type: functional
[26] = insulin promoter down-regulators in MIN6 cells, imaging, high-content screening, mouse beta cells (AID 1628); type: functional
[27] = Luminescence Cell-Based Dose Response HTS to Identify Activators of Luciferase Translation or Activity in H4 […] Cells. [Related pubchem assays: 1829 (Project Summary), 1814 (Primary HTS)]; type: functional
[28] = cytotoxicity in MIN6 insulinoma cells, dose response, cytotoxicity control, cell-based, mouse insulinoma (AID 2122); type: functional;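 also: confirmatory high-throughput counterscreen run to flag cytotoxic compounds; mouse MIN-6 beta cells carrying an insulin promoter eGFP reporter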
[29] = tested on: H4; test: Luminescence Cell-Based Dose Response HTS to Identify Activators of 5'UTR Stem-Loop Driven Prion Protein mRNA Translation in H4 Neuroglioblastoma Cells. [Related pubchem assays: 1829 (Project Summary), 1814 (Primary HTS)]; type: functional; conditions: Homo sapiens
[30] = microbe, parasite or virus in culture; type: functional; conditions: Mycobacterium tuberculosis
[31] = tested on: INS1; test: beta cell apoptosis inhibitors, cytokine rescue, dose response, luminescence, retest (AID 449756); type: functional, cell-based; conditions: Rattus norvegicus;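 also: cell death triggered by IL-1 beta plus TNF-alpha plus IFN-gamma mixture; protective hits raise ATP signal compared with cytokine alone wells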
[32] = molecular target: Disintegrin and metalloproteinase domain-containing protein 17 (Homo sapiens, UniProt P78536); test: exosite inhibitors of ADAM17, dose response, biochemical (AID 743260)
[33] = ADAM10 protease inhibitors, dose response, selectivity assay for ADAM17 exosite inhibitor project, biochemical, FRET peptide substrate, recombinant human ADAM10 (AID 743259);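 also: ADAM10 enzyme cleaving a FRET peptide substrate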

T1 sequence (P09923 whole entry): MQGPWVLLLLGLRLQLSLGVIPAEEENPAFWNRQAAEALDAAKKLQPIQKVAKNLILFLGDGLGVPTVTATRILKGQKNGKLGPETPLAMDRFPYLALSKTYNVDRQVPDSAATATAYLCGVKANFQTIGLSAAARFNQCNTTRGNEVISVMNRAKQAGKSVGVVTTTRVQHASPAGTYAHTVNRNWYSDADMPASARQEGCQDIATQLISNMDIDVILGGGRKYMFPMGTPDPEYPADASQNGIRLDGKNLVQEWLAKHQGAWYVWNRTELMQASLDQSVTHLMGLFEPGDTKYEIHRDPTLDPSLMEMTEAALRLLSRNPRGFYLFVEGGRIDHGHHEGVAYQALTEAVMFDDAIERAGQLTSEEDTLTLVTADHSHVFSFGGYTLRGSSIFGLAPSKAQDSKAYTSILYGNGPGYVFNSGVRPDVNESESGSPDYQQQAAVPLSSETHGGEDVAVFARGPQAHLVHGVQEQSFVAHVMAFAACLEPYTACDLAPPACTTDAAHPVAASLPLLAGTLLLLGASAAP
Intestinal-type alkaline phosphatase (Mus musculus, UniProt P24822), sequence (P24822 whole entry): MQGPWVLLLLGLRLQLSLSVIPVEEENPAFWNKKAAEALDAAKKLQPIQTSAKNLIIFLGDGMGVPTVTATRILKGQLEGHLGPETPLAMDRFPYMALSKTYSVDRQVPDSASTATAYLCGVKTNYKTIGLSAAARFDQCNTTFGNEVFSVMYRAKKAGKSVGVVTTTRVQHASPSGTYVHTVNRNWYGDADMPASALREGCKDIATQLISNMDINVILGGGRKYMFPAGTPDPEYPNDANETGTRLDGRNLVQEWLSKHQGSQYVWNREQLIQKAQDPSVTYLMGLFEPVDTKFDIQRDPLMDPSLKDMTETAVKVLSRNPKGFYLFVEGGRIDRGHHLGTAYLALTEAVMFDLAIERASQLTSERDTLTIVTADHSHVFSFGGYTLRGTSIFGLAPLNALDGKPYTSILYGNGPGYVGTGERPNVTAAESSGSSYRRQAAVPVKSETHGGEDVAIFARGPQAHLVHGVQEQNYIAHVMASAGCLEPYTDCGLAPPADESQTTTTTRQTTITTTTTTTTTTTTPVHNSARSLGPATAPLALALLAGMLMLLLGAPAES
Nonstructural protein 1, sequence (Q194T2 whole entry): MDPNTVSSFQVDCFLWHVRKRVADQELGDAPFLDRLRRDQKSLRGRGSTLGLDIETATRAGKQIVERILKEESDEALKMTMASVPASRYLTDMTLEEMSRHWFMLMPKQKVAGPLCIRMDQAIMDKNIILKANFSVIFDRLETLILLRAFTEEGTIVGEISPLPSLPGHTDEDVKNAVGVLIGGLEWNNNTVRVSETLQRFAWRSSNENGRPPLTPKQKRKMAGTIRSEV
Nucleotide-binding oligomerization domain-containing protein 2, sequence (Q9HC29 whole entry, the tested form may be a part): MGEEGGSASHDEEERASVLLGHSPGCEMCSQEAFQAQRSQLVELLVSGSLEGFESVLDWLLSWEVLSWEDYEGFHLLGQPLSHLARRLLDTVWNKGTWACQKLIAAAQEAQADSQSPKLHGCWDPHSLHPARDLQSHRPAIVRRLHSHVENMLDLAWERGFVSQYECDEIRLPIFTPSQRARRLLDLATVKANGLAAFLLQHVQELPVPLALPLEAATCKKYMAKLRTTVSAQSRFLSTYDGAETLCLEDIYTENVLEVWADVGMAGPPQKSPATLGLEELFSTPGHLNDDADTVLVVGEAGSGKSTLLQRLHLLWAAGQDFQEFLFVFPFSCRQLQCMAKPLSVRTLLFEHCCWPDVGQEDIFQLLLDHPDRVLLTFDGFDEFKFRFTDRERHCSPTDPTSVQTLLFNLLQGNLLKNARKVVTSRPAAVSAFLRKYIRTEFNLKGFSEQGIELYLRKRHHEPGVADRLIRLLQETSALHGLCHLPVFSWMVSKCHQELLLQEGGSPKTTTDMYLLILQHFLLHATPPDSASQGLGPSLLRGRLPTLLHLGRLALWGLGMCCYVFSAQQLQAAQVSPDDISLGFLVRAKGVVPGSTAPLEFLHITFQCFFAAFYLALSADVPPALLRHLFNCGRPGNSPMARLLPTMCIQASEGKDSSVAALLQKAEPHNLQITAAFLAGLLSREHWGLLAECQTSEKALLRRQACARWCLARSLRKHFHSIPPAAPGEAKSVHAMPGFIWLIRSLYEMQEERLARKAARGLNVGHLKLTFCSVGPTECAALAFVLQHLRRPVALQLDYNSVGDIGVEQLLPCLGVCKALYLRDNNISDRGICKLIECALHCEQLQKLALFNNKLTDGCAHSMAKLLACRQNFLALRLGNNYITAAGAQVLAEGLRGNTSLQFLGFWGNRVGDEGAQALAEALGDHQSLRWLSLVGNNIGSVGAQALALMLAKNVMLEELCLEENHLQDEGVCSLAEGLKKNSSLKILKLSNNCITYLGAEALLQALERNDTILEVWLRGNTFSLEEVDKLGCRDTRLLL
Albumin, sequence (P02769 whole entry): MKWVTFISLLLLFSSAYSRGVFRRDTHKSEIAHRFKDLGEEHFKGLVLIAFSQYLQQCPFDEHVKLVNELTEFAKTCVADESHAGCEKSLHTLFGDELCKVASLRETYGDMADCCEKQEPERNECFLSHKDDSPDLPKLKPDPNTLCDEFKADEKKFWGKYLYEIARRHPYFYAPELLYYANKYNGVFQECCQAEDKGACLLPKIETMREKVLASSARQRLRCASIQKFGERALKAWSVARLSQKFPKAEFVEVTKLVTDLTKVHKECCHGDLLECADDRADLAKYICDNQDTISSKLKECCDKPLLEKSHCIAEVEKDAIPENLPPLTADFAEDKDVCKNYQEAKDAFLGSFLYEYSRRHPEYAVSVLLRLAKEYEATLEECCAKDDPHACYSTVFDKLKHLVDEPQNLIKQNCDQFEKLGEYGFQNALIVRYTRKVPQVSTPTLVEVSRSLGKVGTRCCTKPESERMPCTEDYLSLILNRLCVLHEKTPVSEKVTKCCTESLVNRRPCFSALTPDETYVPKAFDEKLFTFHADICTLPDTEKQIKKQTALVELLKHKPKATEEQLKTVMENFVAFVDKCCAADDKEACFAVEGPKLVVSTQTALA
Tumor necrosis factor, sequence (P01375 whole entry, the tested form may be a part): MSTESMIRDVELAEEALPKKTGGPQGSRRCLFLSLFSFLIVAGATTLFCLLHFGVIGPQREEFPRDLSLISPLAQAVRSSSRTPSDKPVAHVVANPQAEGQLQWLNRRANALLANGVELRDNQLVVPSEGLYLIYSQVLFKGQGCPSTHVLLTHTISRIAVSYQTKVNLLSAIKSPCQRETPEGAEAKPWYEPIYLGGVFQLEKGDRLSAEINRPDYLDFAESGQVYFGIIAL
Induced myeloid leukemia cell differentiation protein Mcl-1, sequence (Q07820 whole entry): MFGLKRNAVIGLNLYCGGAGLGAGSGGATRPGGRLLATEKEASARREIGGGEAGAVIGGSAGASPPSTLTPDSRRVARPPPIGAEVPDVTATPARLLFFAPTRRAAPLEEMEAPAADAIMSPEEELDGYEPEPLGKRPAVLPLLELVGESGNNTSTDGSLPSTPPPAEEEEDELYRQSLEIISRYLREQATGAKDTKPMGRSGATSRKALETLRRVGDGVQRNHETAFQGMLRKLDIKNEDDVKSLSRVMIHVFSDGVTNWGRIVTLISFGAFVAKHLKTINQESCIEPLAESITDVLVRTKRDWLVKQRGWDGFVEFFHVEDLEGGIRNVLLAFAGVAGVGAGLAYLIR
Disintegrin and metalloproteinase domain-containing protein 17, sequence (P78536 whole entry, the tested form may be a part): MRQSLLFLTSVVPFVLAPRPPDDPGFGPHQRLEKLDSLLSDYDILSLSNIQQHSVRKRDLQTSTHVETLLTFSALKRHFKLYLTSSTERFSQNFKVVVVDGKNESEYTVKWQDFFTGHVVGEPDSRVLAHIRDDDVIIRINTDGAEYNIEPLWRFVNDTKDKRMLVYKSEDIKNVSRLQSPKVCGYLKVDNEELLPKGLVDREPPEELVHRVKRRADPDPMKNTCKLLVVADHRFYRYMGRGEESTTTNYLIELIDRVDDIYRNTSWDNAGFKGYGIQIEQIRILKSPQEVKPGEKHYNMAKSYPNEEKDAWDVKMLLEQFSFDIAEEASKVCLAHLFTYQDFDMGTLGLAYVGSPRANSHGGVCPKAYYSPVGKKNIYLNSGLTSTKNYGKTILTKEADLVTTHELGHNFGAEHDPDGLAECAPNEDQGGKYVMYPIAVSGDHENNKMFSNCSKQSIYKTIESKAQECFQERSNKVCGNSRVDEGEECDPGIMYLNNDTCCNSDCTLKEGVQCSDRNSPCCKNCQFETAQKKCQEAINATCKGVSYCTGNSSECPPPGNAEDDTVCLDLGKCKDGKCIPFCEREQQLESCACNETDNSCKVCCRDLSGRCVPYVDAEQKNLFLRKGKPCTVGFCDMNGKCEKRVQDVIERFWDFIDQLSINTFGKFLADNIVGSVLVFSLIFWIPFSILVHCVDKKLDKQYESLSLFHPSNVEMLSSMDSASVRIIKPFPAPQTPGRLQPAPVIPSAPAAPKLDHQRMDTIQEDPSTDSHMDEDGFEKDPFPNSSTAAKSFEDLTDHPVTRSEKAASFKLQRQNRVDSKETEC

CC1C(=O)NN=C1C(=O)N/N=C\c1ccc(O)cc1O (configuration not stated)
IC50 [1]: 7.72 µM (active)
IC50 [2]: > 100 µM (inactive)
EC50 [3]: 8.3 µM (active)
IC50 [4]: 15.9 µM (active)
EC50 [5]: 11.3 µM (active)
IC50 [6]: 7.32 µM (active)
CC50 [7]: 100 µM (active)
IC50 [8]: 45.4 µM (active)

CCCCn1c(=O)c(C(=O)Nc2cnccn2)c(O)c2ccccc21
EC50 [9]: 3.1 µM (active)
IC50 [10]: > 20 µM (inactive)
IC50 [11]: > 20 µM (inactive)
EC50 [12]: 1.72 µM (active)
IC50 [13]: 7.07 µM (active)
IC50 [14]: > 20 µM (inactive)
IC50 [15]: 4.92 µM (active)
IC50 [16]: 7.68 µM (active)
Absolute IC50 (XBP1) [17]: 10 µM
IC50 [18]: > 20 µM (inactive)

CCOC(=O)c1c(C)[nH]c(C(=O)N/N=C/c2cc([N+](=O)[O-])ccc2O)c1C
EC50 [19]: 2.33 µM (active)
EC50 [20]: 0.86 µM (active)
EC50 [21]: 2.97 µM (active)
IC50 [2]: > 100 µM (inactive)
EC50 [3]: 12.1 µM (active)
IC50 [4]: 44 µM (active)
EC50 [5]: 11.4 µM (active)
EC50 [22]: 22.3 µM (active)
IC50 [23]: > 94.1 µM (inactive)

O=C(Nc1nc2ccc(F)cc2s1)C1CCN(S(=O)(=O)c2cc([N+](=O)[O-])ccc2Cl)CC1
CC50 [24]: 12 µM (active)
EC50 [25]: 14.7 µM (active)
IC50 [26]: 2.34 µM (active)
EC50 [27]: 25.8 µM (active)
IC50 [28]: 2.37 µM (active)
EC50 [29]: 4.7 µM (active)
CC50 [30]: 20.2 µM (active)
AC50 [31]: 8.24 µM (active)
IC50 [32]: > 69.5 µM (inactive)
IC50 [33]: > 7.72 µM (active)
